From patent US9434724B2, “Quinuclidines for modulating alpha 7 activity” (priority 2014, dated 2016)
Where two headings read alike, the source gives them in different places.

Legend:
Human plasma stability = assay type: in vitro ADME; conditions: plasma
Experimental: Protocol 1: Studies were carried out in human plasma. All plasma was obtained from Bioreclamation and collected on sodium heparin. Plasma was adjusted to pH 7.4. A DMSO stock was first prepared for the test compound. An aliquot of the DMSO solution was dosed into 1 mL of plasma, which had been pre-warmed to 37° C., at a final test compound concentration of 1 μM. The vials were kept in a benchtop Thermomixer® for the duration of the experiment. Aliquots (100 μL) were taken at each time point (0, 15, 30, 60, and 120 minutes) and added to 96-well plates which had been pre-filled with 300 μL of acetonitrile. Samples were stored at 4° C. until the end of the experiment. After the final time point was sampled, the plate was mixed and then centrifuged at 3,000 rpm for 10 minutes. Aliquots of the supernatant were removed, diluted 1:1 into distilled water, and analyzed by LC-MS/MS. The peak area response ratio to internal standard (PARR) of the compound at 15, 30, 60 and 120 minutes was compared to the PARR at time 0 to determine the percent of test compound remaining at each time point. Half-lives were calculated using GraphPad software, fitting to a single-phase exponential decay equation.
Protocol 2: Studies were carried out in plasma. Plasma was prepared under approval of IRB and IACUC on sodium heparin. The pH of plasma was monitored and used within the range of pH 7.4 to pH 8.0. DMSO stocks were prepared for the test compounds. Aliquots of the DMSO solutions were diluted to 0.05 mM by 0.05 mM Sodium phosphate buffer with 0.5% BSA. Then 10 μL of 0.05 mM solutions were dosed into 90 μL of plasma in duplicates (n=2), which had been pre-warmed to 37° C., at a final test compound concentration of 5 μM. The plates were kept in a 37° C. water bath for the duration of the experiment. At each time point (0, 5, 15, 30, 45, 60, and 120 minutes), 400 μL of acetonitrile was added into corresponding wells. After the final time point was sampled, the plates were shaken at the vibrator (IKA, MTS 2/4) for 10 min (600 rpm/min) and then centrifuged at 5594 g for 15 min (Thermo Multifuge×3R). Aliquots of the supernatant were removed, diluted 1:1 into distilled water, and analyzed by LC-MS/MS. The peak area response ratio to internal standard (PARR) of the compounds at 5, 15, 30, 45, 60, and 120 minutes was compared to the PARR at time 0 to determine the percent of test compound remaining at each time point. Half-lives were calculated using Excel software, fitting to a single-phase exponential decay equation.

[1] = Metabolic stability assay in human liver microsomes (HLM); assay type: in vitro ADME; conditions: 1 μM
Experimental: (§1) Protocol 1: Studies were carried out in human and rat liver microsomes (“HLM” and “RLM,” respectively). Human and rat liver microsomes were purchased from BD Gentest. DMSO stocks were prepared for the test compounds. Aliquots of the DMSO solutions were diluted to 0.5 mM by acetonitrile, then further diluted by liver microsomes/buffer to 1.5 μM. 30 μL of 1.5 μM solutions were mixed with 15 μL of 6 mM NADPH, which had been pre-warmed to 37° C., at a final test compound concentration of 1 μM. The plates were kept in a 37° C. water bath for the duration of the experiment. At each time point (0, 5, 15, 30, 45 minutes), 135 μL of acetonitrile was added into corresponding wells. After the final time point was sampled, the plates were shaken at a vibrator (IKA, MTS 2/4) for 10 min (600 rpm/min) and then centrifuged at 5594 g for 15 min (Thermo Multifuge×3R). Aliquots of the supernatant were removed, diluted 1:1 into distilled water, and analyzed by LC-MS/MS. The peak area response ratio to internal standard (PARR) of the compounds at 5, 15, 30, 45 minutes was compared to the PARR at time 0 to determine the percent of test compound remaining at each time point. Half-lives were calculated using Excel software, fitting to a single-phase exponential decay equation.
(§2) Protocol 2: Studies were carried out in human and rat liver microsomes. Buffer solutions were prepared as follows: Buffer A: 1.0 L of 0.1 M monobasic Potassium Phosphate buffer containing 1.0 mM EDTA; Buffer B: 1.0 L of 0.1 M Dibasic Potassium Phosphate buffer containing 1.0 mM EDTA; Buffer C: 0.1 M Potassium Phosphate buffer, 1.0 mM EDTA, pH 7.4 by titrating 700 mL of buffer B with buffer A while monitoring with a pH meter.
(§3) Reference compound (Ketanserin) and test compound spiking solutions were prepared as follows: 500 μM spiking solution: add 10 μL of 10 mM DMSO stock solution into 190 μL ACN; 1.5 μM spiking solution in microsomes (0.75 mg/mL): add 1.5 μL of 500 μM spiking solution and 18.75 μL of 20 mg/mL liver microsomes into 479.75 μL of Buffer C.
(§4) NADPH stock solution (6 mM) was prepared by dissolving NADPH into buffer C.
(§5) Assay procedure: 30 μL of 1.5 μM spiking solution containing 0.75 mg/mL microsomes solution was dispensed to the wells designated for […]. The plate was pre-incubated at 37° C. for 10 minutes. 15 μL of NADPH stock solution (6 mM) was added to the wells designated as Time 45, and the timer was started. At 30 mM, 15 mM, and 5 mM, 15 μL NADPH stock solution (6 mM) was added to the wells, respectively. At the end of incubation (0 mM), 135 μL of ACN containing IS was added to all the wells. Then 15 μL of NADPH stock solution (6 mM) was added to the wells designated as Time 0. After quenching, the reaction mixtures were centrifuged at 3220 g for […]. Following centrifugation, 50 μL of the supernatant was transferred from each well into a 96-well sample plate containing 50 μL of ultra-pure water (Millipore) for LC/MS analysis. The peak area response (PARR) ratio to internal standard of the compounds at 5, 15, 30, and 45 minutes was compared to the PARR at time 0 to determine the percent of test compound remaining at each time point. Half-lives were calculated using Excel software, fitting to a single-phase exponential decay equation.

[2] = molecular target: rat brain nicotinic receptor (α7 NAChR) (Rattus norvegicus (Rat), UniProt Q05941); assay type: binding
[3] = Metabolic stability assay in rat liver microsomes (RLM); assay type: in vitro ADME; conditions: 1 μM
Experimental: as §1, §2, §3, §4, §5

CYP1A2 = CYP1A2 (Homo sapiens (Human), UniProt P05177); experiment: Cytochrome P450 inhibition in human liver microsomes, CYP1A2
CYP2C9 = CYP2C9 (Homo sapiens (Human), UniProt P11712); experiment: Cytochrome P450 inhibition in human liver microsomes, CYP2C9
CYP2C19 = CYP2C19 (Homo sapiens (Human), UniProt P33261); experiment: Cytochrome P450 inhibition in human liver microsomes, CYP2C19
CYP3A4 = CYP3A4 (Homo sapiens (Human), UniProt P08684); experiment: Cytochrome P450 inhibition in human liver microsomes, CYP3A4
[4] = read-out: 2C19 IC50, Protocol 2

Sequence of CYP3A4 (P08684 whole entry): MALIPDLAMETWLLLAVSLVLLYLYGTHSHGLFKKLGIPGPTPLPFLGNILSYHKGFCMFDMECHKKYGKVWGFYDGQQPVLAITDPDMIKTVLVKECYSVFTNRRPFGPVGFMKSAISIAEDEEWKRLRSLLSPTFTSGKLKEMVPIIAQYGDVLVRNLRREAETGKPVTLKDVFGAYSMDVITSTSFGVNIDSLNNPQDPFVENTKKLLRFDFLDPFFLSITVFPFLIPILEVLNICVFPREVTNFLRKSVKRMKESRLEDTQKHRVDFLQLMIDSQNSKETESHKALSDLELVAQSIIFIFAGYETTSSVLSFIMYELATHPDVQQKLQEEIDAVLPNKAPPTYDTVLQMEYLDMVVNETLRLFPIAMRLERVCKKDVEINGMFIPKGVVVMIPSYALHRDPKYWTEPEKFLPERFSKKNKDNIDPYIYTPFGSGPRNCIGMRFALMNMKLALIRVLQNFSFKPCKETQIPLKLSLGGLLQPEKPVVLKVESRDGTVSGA
Sequence of CYP2C19 (P33261 whole entry): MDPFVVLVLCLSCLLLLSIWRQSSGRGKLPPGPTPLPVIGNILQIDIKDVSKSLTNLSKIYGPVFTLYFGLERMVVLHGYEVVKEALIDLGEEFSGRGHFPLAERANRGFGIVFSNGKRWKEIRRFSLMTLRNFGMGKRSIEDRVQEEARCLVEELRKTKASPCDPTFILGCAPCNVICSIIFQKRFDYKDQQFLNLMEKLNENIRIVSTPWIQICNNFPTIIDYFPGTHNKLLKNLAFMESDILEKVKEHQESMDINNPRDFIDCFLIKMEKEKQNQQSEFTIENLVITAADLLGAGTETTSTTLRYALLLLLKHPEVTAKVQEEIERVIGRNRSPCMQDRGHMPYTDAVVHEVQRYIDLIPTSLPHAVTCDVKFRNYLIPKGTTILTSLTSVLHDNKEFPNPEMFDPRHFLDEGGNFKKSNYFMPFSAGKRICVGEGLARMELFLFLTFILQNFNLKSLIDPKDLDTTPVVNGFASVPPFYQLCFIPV
Sequence of CYP1A2 (P05177 whole entry): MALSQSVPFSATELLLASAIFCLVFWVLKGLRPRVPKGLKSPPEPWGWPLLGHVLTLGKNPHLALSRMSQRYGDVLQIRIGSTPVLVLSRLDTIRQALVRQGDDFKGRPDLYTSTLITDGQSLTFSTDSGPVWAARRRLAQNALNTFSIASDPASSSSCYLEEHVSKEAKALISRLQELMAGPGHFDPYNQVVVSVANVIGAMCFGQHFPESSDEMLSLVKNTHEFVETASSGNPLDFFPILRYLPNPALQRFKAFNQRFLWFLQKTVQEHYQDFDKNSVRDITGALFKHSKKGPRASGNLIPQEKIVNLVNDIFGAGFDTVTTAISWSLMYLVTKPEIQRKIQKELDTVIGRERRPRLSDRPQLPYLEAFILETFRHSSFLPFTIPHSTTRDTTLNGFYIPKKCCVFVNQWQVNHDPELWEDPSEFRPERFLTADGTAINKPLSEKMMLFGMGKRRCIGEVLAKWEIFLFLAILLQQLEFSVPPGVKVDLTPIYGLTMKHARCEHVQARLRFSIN
Sequence of rat brain nicotinic receptor (α7 NAChR) (Q05941 23-502 limits assumed): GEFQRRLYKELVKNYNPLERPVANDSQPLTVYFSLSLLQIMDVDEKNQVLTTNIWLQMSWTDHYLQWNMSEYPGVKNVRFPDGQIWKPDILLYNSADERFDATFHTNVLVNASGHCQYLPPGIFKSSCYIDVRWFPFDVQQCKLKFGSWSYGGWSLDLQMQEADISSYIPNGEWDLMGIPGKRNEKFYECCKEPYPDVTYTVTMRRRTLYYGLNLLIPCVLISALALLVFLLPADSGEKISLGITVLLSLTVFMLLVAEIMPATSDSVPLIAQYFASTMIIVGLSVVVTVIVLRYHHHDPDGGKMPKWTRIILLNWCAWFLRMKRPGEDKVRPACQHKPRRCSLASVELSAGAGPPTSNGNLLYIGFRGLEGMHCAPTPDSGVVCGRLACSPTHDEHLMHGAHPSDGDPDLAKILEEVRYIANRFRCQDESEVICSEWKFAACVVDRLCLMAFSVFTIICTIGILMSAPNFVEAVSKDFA
Sequence of CYP2C9 (P11712 whole entry): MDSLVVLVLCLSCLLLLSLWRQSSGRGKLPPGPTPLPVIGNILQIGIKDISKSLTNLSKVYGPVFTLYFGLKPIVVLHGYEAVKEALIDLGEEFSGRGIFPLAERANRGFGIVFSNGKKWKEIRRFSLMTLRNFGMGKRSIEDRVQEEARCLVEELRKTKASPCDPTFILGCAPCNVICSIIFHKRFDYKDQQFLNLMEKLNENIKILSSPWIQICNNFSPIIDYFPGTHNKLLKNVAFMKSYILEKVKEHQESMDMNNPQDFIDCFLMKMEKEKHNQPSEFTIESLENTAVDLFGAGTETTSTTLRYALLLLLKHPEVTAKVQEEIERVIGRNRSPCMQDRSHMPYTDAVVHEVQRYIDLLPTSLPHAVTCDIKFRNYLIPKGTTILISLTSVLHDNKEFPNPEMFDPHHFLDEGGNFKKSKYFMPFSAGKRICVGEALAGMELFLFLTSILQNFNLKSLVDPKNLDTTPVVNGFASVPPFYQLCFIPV

| Compound | % Remaining @ 2 h (Human plasma stability; human, 2 h, 1 μM, pH 7.4) [%] | half-life at 1 μM (Human plasma stability; human, pH 7.4) [min] | HLM ([1]; human, microsomes, pH 7.4) [mL/min/kg] | IC50 [2] [nM] | Ki [2] [nM] | RLM ([3]; rat, microsomes, pH 7.4) [mL/min/kg] | IC50 (CYP1A2; read-out: 1A2 IC50, Protocol 2) [nM] | IC50 (CYP2C9; read-out: 2C9 IC50, Protocol 2) [nM] | IC50 (CYP2C19; [4]) [nM] | % Remaining @ 2 h (Human plasma stability; Protocol No. 2, 5 μM, 37° C.) [%] | HLM ([1]; Protocol No. 1, human liver microsomes) [mL/min/kg] | IC50 (CYP3A4; read-out: 3A4 IC50 (Midazolam), substrate midazolam, Protocol 1) [nM] | IC50 (CYP3A4; read-out: 3A4 IC50 (Testosterone), substrate testosterone, Protocol 1) [nM] | RLM ([3]; Protocol No. 1, rat liver microsomes) [mL/min/kg] | IC50 (CYP1A2; read-out: 1A2 IC50, Protocol 1) [nM] | IC50 (CYP2C9; read-out: 2C9 IC50, Protocol 1) [nM] | IC50 (CYP2C19; read-out: 2C19 IC50, Protocol 1) [nM] | IC50 (CYP3A4; read-out: 3A4 IC50 (Midazolam), substrate midazolam, Protocol 2) [nM] |
| --- | --- | --- | --- | --- | --- | --- | --- | --- | --- | --- | --- | --- | --- | --- | --- | --- | --- | --- |
| O=C(OCC12CCN(CC1)CC2)c1c[nH]c2ccccc12 [Compound 1, quinuclidin-4-ylmethyl 1H-indole-3-carboxylate] | 11 | 38.5 | <13.608 | 31.8 | 27.6 | 105.84 | > 10000 | > 10000 | > 10000 | – | – | – | – | – | – | – | – | – |
| COc1cccc2c(C(=O)OCC34CCN(CC3)CC4)c[nH]c12 [Compound 16, quinuclidin-4-ylmethyl 7-methoxy-1H-indole-3-carboxylate] | – | – | <13.608 | 1400 | 1210 | 82.6672 | > 10000 | > 10000 | > 10000 | – | – | – | – | – | – | – | – | – |
| O=C(OCC12CCN(CC1)CC2)c1c[nH]c2ccc(O)cc12 [Compound 15, quinuclidin-4-ylmethyl 5-hydroxy-1H-indole-3-carboxylate] | – | – | <13.608 | 153 | 132 | 25.92 | > 10000 | > 10000 | > 10000 | – | – | – | – | – | – | – | – | – |
| COc1ccc2[nH]cc(C(=O)OCC34CCN(CC3)CC4)c2c1 [Compound 18, quinuclidin-4-ylmethyl 5-methoxy-1H-indole-3-carboxylate] | 5.8 | 29.2 | <13.608 | 32.6 | 28.3 | 47.8757 | > 10000 | > 10000 | > 10000 | – | – | – | – | – | – | – | – | – |
| COc1ccc2c(C(=O)OCC34CCN(CC3)CC4)c[nH]c2c1 [Compound 10, quinuclidin-4-ylmethyl 6-methoxy-1H-indole-3-carboxylate] | – | > 120 | <13.608 | – | – | 36.72 | > 10000 | – | – | – | – | – | – | – | – | – | – | – |
| Cl.O=C(OCC12CCN(CC1)CC2)c1c[nH]c2cc(Cl)c(F)cc12 [Compound 52, Quinuclidin-4-ylmethyl 6-chloro-5-fluoro-1H-indole-3-carboxylate hydrochloride] | – | – | – | – | – | – | – | – | – | 85.8425 | 4.003 | > 10000 | > 10000 | 345.506 | > 10000 | > 10000 | > 10000 | – |
| COc1ccc2c(C(=O)OCC34CCN(CC3)CC4)c[nH]c2c1 [Compound 17, quinuclidin-4-ylmethyl 6-methoxy-1H-indole-3-carboxylate] | – | – | <13.608 | 376 | 329 | 38.1652 | > 10000 | – | – | – | – | – | – | – | – | – | – | – |
| COc1ccc2[nH]cc(C(=O)OCC34CCN(CC3)CC4)c2c1C [Compound 34, quinuclidin-4-ylmethyl 5-methoxy-4-methyl-1H-indole-3-carboxylate] | 55 | > 120 | <13.608 | 23.6 | 20.4 | 125.64 | > 10000 | > 10000 | > 10000 | – | – | – | – | – | – | – | – | – |
| O=C(OCC12CCN(CC1)CC2)c1c[nH]c2cc(F)ccc12 [Compound 11, quinuclidin-4-ylmethyl 6-fluoro-1H-indole-3-carboxylate] | – | – | <13.608 | 261 | 228 | 97.6892 | > 10000 | – | – | – | – | – | – | – | – | – | – | > 10000 |
| COc1cccc2[nH]cc(C(=O)OCC34CCN(CC3)CC4)c12 [Compound 36, quinuclidin-4-ylmethyl 4-methoxy-1H-indole-3-carboxylate] | 2.5 | 28 | <13.608 | 48.9 | 42.3 | 52.02 | > 10000 | – | – | – | – | – | – | – | – | – | – | – |
| Cc1ccc2[nH]cc(C(=O)OCC34CCN(CC3)CC4)c2c1 [Compound 20, quinuclidin-4-ylmethyl 5-methyl-1H-indole-3-carboxylate] | 14 | 41.2 | <13.608 | 68.1 | 60.1 | 276.124 | > 10000 | – | – | – | – | – | – | – | – | – | – | – |
| N#Cc1ccc2c(C(=O)OCC34CCN(CC3)CC4)c[nH]c2c1 [Compound 28, quinuclidin-4-ylmethyl 6-cyano-1H-indole-3-carboxylate] | 79 | > 120 | <13.608 | – | – | 28.4342 | > 10000 | > 10000 | > 10000 | – | – | – | – | – | – | – | – | – |
| O=C(OCC12CCN(CC1)CC2)c1c[nH]c2ccc(F)cc12 [Compound 12, quinuclidin-4-ylmethyl 5-fluoro-1H-indole-3-carboxylate] | 31 | 73.8 | <13.608 | 86.5 | 75.1 | 208.73 | > 10000 | > 10000 | > 10000 | – | – | – | – | – | – | – | – | – |
